The values that follow come from patent US20080206287A1, “Use of cyclosporin A to sensitize resistant cancer cells to death receptor ligands” (priority 2006, published 2008).

Common to all, as to format: cell-based
In one experiment the test system is PPC-1 cells. Put plainly: PPC-1 cell viability (MTT) with or without CH-11 anti-FAS antibody. As to conditions: for direct toxicity: compound alone, concentrations up to 80 μM. The procedure:
High throughput screening. Screens were performed using a fully integrated, programmable robotic liquid handling system (Biomek® FX, Beckman-Coulter Inc., Fullerton, Calif.), with integrated plate reader (LJL analyst HT 96-384, Sunnyvale, Calif.) and environmentally controlled plate carousel set at 37° C. and 5% CO2:95% air. PPC-1 cells (1×10^4) were seeded overnight into 96 well, flat-bottom plates (Costar, Cambridge, Mass.) in 100 μL of medium containing 2.5% FCS. The next day, aliquots from the 50,000 compound Diversa library were added at a final concentration of 7.5 μg/mL (about 25 μM) in a final concentration of 0.5% (v:v) dimethylsulfoxide (DMSO). CH-11 antibody (100 ng/mL) was then added, and the cells were incubated for 24 hours before assessing cell viability by a 3-(4,5-Dimethylthiazol-2-yl)-2,5-diphenyltetrazolium Bromide (MTT) dye reduction assay (Sigma).
Cell death assays. Cell viability was measured by MTT and MTS assays, essentially as described in Schimmer et al. (Cancer Cell 5:25-35, 2004). Absorbance readings were plotted against a standard curve to derive the corresponding cell number, and cell viability was expressed as a percentage relative to untreated cells. Apoptosis was measured by flow cytometric analysis of Annexin V surface expression after staining cells with FITC-anti-Annexin V and propidium iodide (PI) (Biovision, Mountain View, Calif.), as described in Pedersen et al. (Blood 100:2965-72, 2002).
Statistics. Cytotoxicity induced by compounds used in combination with conventional agents (e.g., CH-11, TRAIL, VP-16 and staurosporine) was evaluated for evidence of synergy toxicity by comparing the slopes of the dose-response curves. If the combination of the potential sensitizing compound with the conventional agent increased the slope of the dose-response curve compared to the slopes of either the sensitizer or the conventional agent alone, then the interaction was considered synergistic. […] Statistical significance was defined as a p<0.01, using two-sided tests. Synergy was confirmed by performing multiple drug dose-effect calculations using the Median Effect methods as described in Chou (“The Median-Effect Principle and the Combination Index for Quantitation of Synergism and Antagonism.” In: D. C. Rideout and T. C. Chou (eds.), Synergism and Antagonism in Chemotherapy, pp. 61-102: Academic Press, Inc., 1991).
Identification of small molecule FAS sensitizers. Resistance to death receptor ligands may permit malignant cells to escape immune surveillance and limit the clinical efficacy of recombinant death receptor ligands such as TRAIL. To identify small molecules that restore sensitivity to death receptor ligands, a cell-based high throughput screen was performed using the FAS and TRAIL-resistant prostate cancer cell line PPC-1 and a commercially available 50,000 compound library. The screens were performed in 96 well plates, to which compounds were added at 7.5 μg/ml (about 25 μM), followed by agonistic anti-FAS monoclonal antibody CH-11 (100 ng/mL). Cell viability was measured 24 hours later by MTT assay. […] The coefficient of variation (CV) for PPC-1 cells treated with CH-11 alone was determined to be 5%, based on 90 replicate determinations. A 50% decrease in cell viability was used as a cut-off for scoring hits.
From the primary screen of 50,000 compounds, 313 reproducible hits were obtained. To determine whether any of the 313 compounds were toxic molecules as opposed to FAS-sensitizers, the 313 compounds were evaluated in secondary screens where PPC-1 cells were treated with increasing concentrations of the compounds in the presence or absence of CH-11 antibody. Through these secondary screens, nine sensitizers were identified that increased CH-11-mediated killing above the cell death produced by treatment of the cells with the compound alone (Table 1). […]

Experiment [1] has as its system PPC-1, OVCAR-3, T47D, MDA-MB-468 and DU 145 cells. Put plainly: FLIP siRNA knock-down and CH-11 killing. As to conditions: PPC-1 cells transfected with FLIP siRNA. The procedure:
Transfection of siRNA oligonucleotides. Double-stranded SMARTPOOL siRNA oligonucleotides targeting c-FLIP mRNA and double-stranded firefly luciferase control siRNA (Dharmacon Research, Lafayette, Colo.) (10 nM) were transfected into cells with Lipofectamine according to the manufacturer's instructions.
To test the functional importance of decreases in FLIP by 5809354, it was determined whether knocking down FLIP could recapitulate the activity of the molecule and abrogate 5809354's ability to sensitize cells to CH-11. PPC-1 cells were transfected with double stranded siRNA that targeted FLIP or luciferase as a control. At 24 hours after transfection, cells were treated with increasing concentrations of 5809354 with or without CH-11.

For another experiment, the system named is ten tumor cell lines. Description: CH-11 killing of a spectrum of malignant cell lines. As to conditions: increasing concentrations with or without CH-11. The procedure: Effects of small molecule sensitizers on CH-11 killing of a spectrum of malignant cell lines. To assess the spectrum of activity of the small molecule FAS sensitizers, an additional nine malignant cell lines derived from breast, ovarian, and prostate carcinomas were treated with increasing concentrations of the sensitizers in the presence or absence of CH-11. […] None of the other compounds sensitized more than four of ten tumor lines to CH-11. […] Also, all of the non-responding cell lines, except Colo 205, had detectable levels of FLIP by immunoblotting. Thus, the failure of 609411 and 5809354 to sensitize these tumor lines to anti-FAS antibody was not due to either lack of FAS expression or absence of FLIP, with rare exception.

SMILES strings stand for the structures. “Also recorded” adds a separate entry of the source.

Regarding `CCn1c(=N)n(CC(=O)c2cc(C(C)(C)C)c(O)c(C(C)(C)C)c2)c2ccccc21` [compound 5569100, 1-(3,5-Di-tert-butyl-4-hydroxy-phenyl)-2-(3-ethyl-2-imino-2,3-dihydro-benzoimidazol-1-yl)-ethanone], in the experiment on PPC-1 cells (Homo sapiens, PPC-1, PPC1 cells with anti-FAS antibody, read-out: EC50 as a FAS-sensitizer in PPC1 cells), the EC50 worked out at 5.6 µM. In the experiment with PPC-1 cells (PPC1 cells), the “potency as a FAS-sensitizer relative to 5541203” value is recorded as “approximately 5 times”. Further, the “toxicity when added alone relative to 5541203” value in the experiment on PPC-1 cells (PPC1 cells, without anti-FAS antibody) was “three times more toxic”. Further, in the experiment on PPC-1 cells (PPC-1 cells, combined with CH-11), the “synergy with CH-11, median-dose combination index (CI)” value is listed as “did not demonstrate synergy”.

With `O=C(CCCOc1ccc(Cl)cc1Cl)NO` [compound 5809354, 4-(2,4-dichlorophenoxy)-N-hydroxybutanamide], the “enhancement of CH-11-mediated killing in the presence of FLIP siRNA” value in experiment [1] is on record as “the longer enhanced CH-11-mediated killing”. Moreover, in the experiment on ten tumor cell lines, the “tumor cell lines sensitized to CH-11” value is listed as “sensitized the same tumor lines with the exception of HT29”. For the same compound, the direct toxicity result in the experiment on PPC-1 cells (PPC-1 cells) is recorded as “little direct toxicity”.

On to `CC(=O)CC(=O)Nc1ccc(Cl)c(C(F)(F)F)c1` [compound 6094911, N-[4-chloro-3-(trifluoromethyl)phenyl]-3-oxobutanamide], for which the “tumor cell lines sensitized to CH-11” value with ten tumor cell lines is reported as “sensitized four of ten tumor cell lines to CH-11; also recorded: sensitizing 4 of 10 tumor lines; also recorded: enhanced FAS-induced killing of several tumor cell lines”. Moreover, in the experiment on PPC-1 cells (PPC-1 cells), the direct toxicity entry is on record as “little direct toxicity”.
